Assay results published in patent US12643886B2 (Ontario Institute for Cancer Research (OICR), priority 2021, dated 2026).

Experiments:
NUAK2 (h) = biological target: T1, NUAK2 (h) (Homo sapiens, UniProt Q9H093); experiment: NUAK2 enzymatic assay (radiometric, Eurofins); type: biochemical; conditions: full-length recombinant enzyme
T1 construct: This assay was done radiometrically using full-length, recombinant enzyme; purchased Eurofins
T1 sequence (Q9H093 1-628): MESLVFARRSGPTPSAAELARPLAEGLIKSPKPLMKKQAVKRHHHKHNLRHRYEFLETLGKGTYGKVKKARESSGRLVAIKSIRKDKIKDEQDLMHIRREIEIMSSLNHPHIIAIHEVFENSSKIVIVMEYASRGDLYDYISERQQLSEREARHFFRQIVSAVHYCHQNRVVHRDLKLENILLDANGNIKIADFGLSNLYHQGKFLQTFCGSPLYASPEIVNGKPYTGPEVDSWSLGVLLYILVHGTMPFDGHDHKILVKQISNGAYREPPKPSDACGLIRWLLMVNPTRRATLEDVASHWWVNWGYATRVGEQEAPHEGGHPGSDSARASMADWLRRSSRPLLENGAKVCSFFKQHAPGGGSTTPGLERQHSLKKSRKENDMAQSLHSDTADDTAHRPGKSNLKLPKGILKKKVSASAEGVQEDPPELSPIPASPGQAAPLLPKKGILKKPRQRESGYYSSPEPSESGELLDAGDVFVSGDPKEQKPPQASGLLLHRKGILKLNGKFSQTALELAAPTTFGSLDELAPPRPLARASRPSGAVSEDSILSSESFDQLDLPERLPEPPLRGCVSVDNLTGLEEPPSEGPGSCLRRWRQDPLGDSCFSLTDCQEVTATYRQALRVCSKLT
How it was run: (§1)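 Full-length recombinant NUAK2 incubated 40 min at room temperature in 8 mM MOPS pH 7.0, 0.2 mM EDTA, 10 mM magnesium acetate, 300 μM peptide substrate and 33P-ATP. Stopped with 0.5% phosphoric acid; filter-bound label counted by scintillation. IC50 reported as ranges; NUAK1 and Aurora A served as counter-screens.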

[1] = test system: Clover-YAP expressing MDA-MB-231 cells; experiment: Cell-based YAP/TAZ localization assay (live imaging of Clover-YAP); conditions: MDA-MB-231 breast cancer cell line, FIG. 1
Experimental: Compounds of the application were tested for their ability to inhibit localization of YAP/TAZ to the nucleus of cells using an assay generally described in Nature Communications, 2018, 9:3510. Live cell imaging of Clover-YAP expressing MDA-MB-231 cells was carried out using a custom WAVE-FX-X1 spinning disc confocal system (Quorum Technologies) with a modified Yokogawa CSU-X1 scanhead on an AxioObserver Z1 inverted microscope (Carl Zeiss) with a ×40 NA 1.2 Plan Apochromat (Carl Zeiss) objective. Cells were plated in a 35 mm glass-bottom dish (Mat-Tek, P35G-1.5-14-C) and were maintained in a stage-top incubator at 37° C. and 5% CO2 during imaging. Cells were cultured in phenol-red free RPMI medium (Thermo Fisher Scientific, 11835030) with 5% FBS and 200 nM SiR-DNA (Spirochrom, SC007) was added 1 h prior to imaging to visualize the nuclei. Localization of Clover-YAP was monitored every 10 min for 2 h. Volocity software was used for image acquisition and processing.

MDA-MB-231 cells = experiment: Tumor cell growth inhibition assay (ATPlite, 5 days); type: cell-based; conditions: Homo sapiens, 120 h; breast tumor cell line MDA-MB-231, 5 days
Experimental: MDA-MB-231 cells were seeded into a 384-well plate at 1,000 cells/well in 50 μl medium (Alpha-MEM containing 10% FBS, […] Normocin, Invivogen and […] Gentamycin, Invitrogen). Plates were then incubated overnight for the cells to attach. An HP D300 digital dispenser was used to dose cells with DMSO or test compounds across a 16-point range of concentrations (high dose of 10 uM to low dose of 5 nM). Plates were incubated in a humidified 5% CO2 incubator at 37° C. After 5 days, plates were removed from the incubator and equilibrated to room temperature. An equal volume of ATPlite assay reagent was then added to each well, and samples processed according to manufacturer's instructions (Perkin Elmer). Luminescent signals were then measured using an Envision plate reader equipped with a US-Luminescence detector.

Aurora A = biological target: T2, Aurora A (Homo sapiens, UniProt O14965); experiment: Counter-screen against Aurora A; type: biochemical; conditions: read-out: AUR-A (IC50)
T2 sequence (O14965 1-403): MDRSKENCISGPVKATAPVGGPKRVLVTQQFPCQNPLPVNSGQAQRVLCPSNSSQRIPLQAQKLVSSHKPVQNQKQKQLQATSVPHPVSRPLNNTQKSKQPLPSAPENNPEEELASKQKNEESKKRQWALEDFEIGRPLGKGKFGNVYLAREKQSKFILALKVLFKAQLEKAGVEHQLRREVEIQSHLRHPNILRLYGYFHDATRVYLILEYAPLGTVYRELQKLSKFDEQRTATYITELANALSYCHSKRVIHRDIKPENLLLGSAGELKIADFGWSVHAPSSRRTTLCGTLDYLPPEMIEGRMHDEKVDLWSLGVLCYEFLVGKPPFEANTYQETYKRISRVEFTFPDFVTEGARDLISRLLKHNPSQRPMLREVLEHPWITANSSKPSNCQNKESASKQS
How it was run: as §1

NUAK1 = biological target: T3, NUAK1 (Homo sapiens, UniProt O60285); experiment: Counter-screen against NUAK1; type: biochemical
T3 sequence (O60285 1-661): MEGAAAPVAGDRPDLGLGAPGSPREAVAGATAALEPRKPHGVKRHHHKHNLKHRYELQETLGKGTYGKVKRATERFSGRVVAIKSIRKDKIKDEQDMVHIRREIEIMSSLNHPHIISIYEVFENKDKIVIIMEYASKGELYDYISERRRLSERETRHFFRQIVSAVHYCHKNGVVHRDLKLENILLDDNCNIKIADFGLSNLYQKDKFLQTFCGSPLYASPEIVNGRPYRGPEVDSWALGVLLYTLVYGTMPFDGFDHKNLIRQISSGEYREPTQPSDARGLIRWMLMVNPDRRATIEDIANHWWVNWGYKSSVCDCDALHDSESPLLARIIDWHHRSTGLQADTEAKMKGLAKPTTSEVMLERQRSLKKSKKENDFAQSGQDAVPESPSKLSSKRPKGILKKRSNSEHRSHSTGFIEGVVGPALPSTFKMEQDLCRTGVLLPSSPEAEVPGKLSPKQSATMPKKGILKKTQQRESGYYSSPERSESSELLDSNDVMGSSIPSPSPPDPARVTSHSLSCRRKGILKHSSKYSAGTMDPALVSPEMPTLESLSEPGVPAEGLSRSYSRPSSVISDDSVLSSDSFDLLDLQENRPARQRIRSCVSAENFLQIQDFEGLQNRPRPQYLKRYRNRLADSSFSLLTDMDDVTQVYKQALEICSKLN
How it was run: as §1

[2] = test system: several cancer cell lines; conditions: immunofluorescence; cited from earlier work
[3] = test system: several cancer cell lines; conditions: PCR; cited from earlier work

| IC50 (NUAK2 (h)) [nM] | IC50 (MDA-MB-231 cells) [nM] | IC50 (Aurora A) [nM] | IC50 (NUAK1) [nM] | SMILES | Inhibition of nuclear localization of YAP/TAZ [1] | YAP/TAZ nuclear localization [2] | YAP/TAZ transcriptional function (target gene expression) [3] |
| --- | --- | --- | --- | --- | --- | --- | --- |
| 11 to 100 | 32 | > 1000 | 11 to 100 | O=C1NCc2cccc(Nc3nc(Nc4ccc(N5CCNCC5)cc4OC(F)F)ncc3C(F)(F)F)c21 [Compound I-34, 7-((2-((2-(difluoromethoxy)-4-(piperazin-1-yl)phenyl)amino)-5-(trifluoromethyl)pyrimidin-4-yl)amino)isoindolin-1-one] | potently inhibit nuclear localization of YAP/TAZ |  |  |
| 0.1 to 10 | 48 | > 1000 | 11 to 100 | O=C1NCc2cccc(Nc3nc(Nc4ccc(N5C[C@@H]6C[C@H]5CN6)cc4OC(F)F)ncc3C(F)(F)F)c21 [Compound I-54, 7-((2-((4-((1S,4S)-2,5-diazabicyclo[2.2.1]heptan-2-yl)-2-(difluoromethoxy)phenyl)amino)-5-(trifluoromethyl)pyrimidin-4-yl)amino)isoindolin-1-one] |  |  |  |
| 11 to 100 | 43 | 101 to 1000 | 11 to 100 | O=C1NCc2cccc(Nc3nc(Nc4ccc(N5C[C@H]6CNC[C@H]6C5)cc4OC(F)F)ncc3C(F)(F)F)c21 [Compound I-56, 7-((2-((2-(difluoromethoxy)-4-((3aR,6aS)-hexahydropyrrolo[3,4-c]pyrrol-2(1H)-yl)phenyl)amino)-5-(trifluoromethyl)pyrimidin-4-yl)amino)isoindolin-1-one] |  |  |  |
| 0.1 to 10 | 398 | 101 to 1000 | 11 to 100 | COc1cc(CN(C)C)ccc1Nc1ncc(Cl)c(Nc2cccc3c2C(=O)NC3)n1 [Compound I-63, 7-((5-chloro-2-((4-((dimethylamino)methyl)-2-methoxyphenyl)amino)pyrimidin-4-yl)amino)isoindolin-1-one] |  |  |  |
|  |  |  |  | CN1CCN(c2ccc(Nc3ncc4cc(C#N)c(=O)n(C5CCCC5)c4n3)cc2)CC1 [ON123300] |  | a block of YAP/TAZ nuclear localization | attenuates transcriptional function |
|  |  |  |  | CCC(=O)Nc1cccc(Oc2nc(Nc3ccc(N4CCN(C)CC4)cc3OC)ncc2Cl)c1 [WZ4003] |  | a block of YAP/TAZ nuclear localization | attenuates transcriptional function |

| SMILES | IC50 (NUAK2 (h)) [nM] | IC50 (MDA-MB-231 cells) [nM] | IC50 (Aurora A) [nM] | IC50 (NUAK1) [nM] | Inhibition of nuclear localization of YAP/TAZ [1] | YAP/TAZ nuclear localization [2] | YAP/TAZ transcriptional function (target gene expression) [3] |
| --- | --- | --- | --- | --- | --- | --- | --- |
| O=C1NCc2cccc(Nc3nc(Nc4ccc(N5C[C@H]6CC[C@@H](C5)N6)cc4OC(F)F)ncc3C(F)(F)F)c21 [Compound I-59, 7-((2-((4-((1R,5S)-3,8-diazabicyclo[3.2.1]octan-3-yl)-2-(difluoromethoxy)phenyl)amino)-5-(trifluoromethyl)pyrimidin-4-yl)amino)isoindolin-1-one] | 0.1 to 10 | 54 | 101 to 1000 | 11 to 100 |  |  |  |
